Measurements reported in patent US10138237B2, “1,2,4-triazolo[4,3-a]pyridine compounds and their use as positive allosteric modulators of mGluR2 receptors” (Janssen Pharmaceutica NV, priority 2014, dated 2018).
One block for each molecule: values may come before it.

Columns and labels:
[1] = molecular target: T1, human mGlu2 receptor (Homo sapiens, UniProt Q14416); assay: [35S]GTPγS binding assay, hmGluR2 PAM; type: biochemical; settings: in presence of EC20 glutamate; for GTPγS - hmGluR2 PAM Emax / Emax: maximal % effect relative to the control glutamate response; for EC50: membranes from CHO cells with human mGlu2 receptor, -log EC50 in M, read-out: GTPγS - hmGluR2 PAM pEC50 (converted)
T1 construct: expressed in transfected cells; host or cells: CHO cells (membrane preparation)
Excerpt: The compounds provided in the present invention are positive allosteric modulators of mGluR2. These compounds appear to potentiate glutamate responses by binding to an allosteric site other than the glutamate binding site. The response of mGluR2 to a concentration of glutamate is increased when compounds of Formula (I) are present. Compounds of Formula (I) are expected to have their effect substantially at mGluR2 by virtue of their ability to enhance the function of the receptor. The effects of positive allosteric modulators tested at mGluR2 using the [^35S]GTPγS binding assay method described below and which is suitable for the identification of such compounds, and more particularly the compounds according to Formula (I), are shown in Table 8.
[^35S]GTPγS Binding Assay
The [^35S]GTPγS binding assay is a functional membrane-based assay used to study G-protein coupled receptor (GPCR) function whereby incorporation of a non-hydrolysable form of GTP, [^35S]GTPγS (guanosine 5′-triphosphate, labelled with […] ^35S), is measured. The G-protein α subunit catalyzes the exchange of guanosine 5′-diphosphate (GDP) by guanosine triphosphate (GTP) and on activation of the GPCR by an agonist, [^35S]GTPγS, becomes incorporated and cannot be cleaved to continue the exchange cycle (Harper (1998) Current Protocols in Pharmacology 2.6.1-10, John Wiley & Sons, Inc.). […] Here we describe the use of the [^35S]GTPγS binding assay using membranes from cells transfected with the human mGlu2 receptor and adapted from Schaffhauser et al. (Molecular Pharmacology, 2003, […]) for the detection of the positive allosteric modulation (PAM) properties of the compounds of this invention.
CHO-cells were cultured to pre-confluence and stimulated with 5 mM butyrate for 24 h. Cells were then collected by scraping in PBS and cell suspension was centrifuged (10 min at 4000 RPM in benchtop centrifuge). Supernatant was discarded and pellet gently resuspended in 50 mM Tris-HCl, pH 7.4 by mixing with a vortex and pipetting up and down. The suspension was centrifuged at 16,000 RPM (Sorvall RC-5C plus rotor SS-34) for 10 minutes and the supernatant discarded. The pellet was homogenized in 5 mM Tris-HCl, pH 7.4 using an ultra-turrax homogenizer and centrifuged again (18,000 RPM, 20 min, 4° C.). The final pellet was resuspended in 50 mM Tris-HCl, pH 7.4 and stored at −80° C. in appropriate aliquots before use. Protein concentration was determined by the Bradford method (Bio-Rad, USA) with bovine serum albumin as standard.
Measurement of mGluR2 positive allosteric modulatory activity of test compounds was performed as follows. Test compounds and glutamate were diluted in assay buffer containing 10 mM HEPES acid, 10 mM HEPES salt, pH 7.4, 100 mM NaCl, 3 mM MgCl2 and 10 μM GDP. Human mGlu2 receptor-containing membranes were thawed on ice and diluted in assay buffer supplemented with 14 μg/ml saponin. Membranes were pre-incubated with compound alone or together with a predefined (˜EC20) concentration of glutamate (PAM assay) for 30 min at 30° C. After addition of [^35S]GTPγS (f.c. 0.1 nM), assay mixtures were shaken briefly and further incubated to allow [^35S]GTPγS incorporation on activation (30 minutes, 30° C.). Final assay mixtures contained 7 μg of membrane protein in 10 mM HEPES acid, 10 mM HEPES salt, pH 7.4, 100 mM NaCl, 3 mM MgCl2, 10 μM GDP and 2 μg/ml saponin. Total reaction volume was 200 μl. Reactions were terminated by rapid filtration through Unifilter-96 GF/B plates (Perkin Elmer, Massachusetts, USA) using a 96-well filtermate universal harvester. Filters were washed 6 times with ice-cold 10 mM NaH2PO4/10 mM Na2HPO4, pH 7.4. Filters were then air-dried, and 40 μl of liquid scintillation cocktail (Microscint-O) was added to each well. Membrane-bound radioactivity was counted in a Microplate Scintillation and Luminescence Counter from Perkin Elmer. […]

[2] = system: 6 Hz (32 mA, 3 s, corneal) limbic seizure in mice; assay: Anticonvulsant studies - 6 Hz test in mice; type: in vivo; settings: Mus musculus, Score ≤ 2 (protected), 32 mA for 3 s
Procedure: Anticonvulsant Studies—6 Hz Test in Mice
At a predefined interval after drug treatment (standard: 0.5 h). individual mice were challenged with sufficient current (32 mA for 3 s; delivered through corneal electrodes) to elicit a limbic seizure. The manifestations of the “psychomotor” seizure were first described by Toman (Toman, J. E. P., 1951, “Neuropharmacologic considerations in psychic seizures” Neurology, 1, 444-460; Toman, J. E. P., Evertett, G. M., Richards, R. K., 1952, “The search for new drugs against epilepsy” Tex. Rep. Biol. Med. 10, 96-104). […] This may be characterized by immobility, or a lack of awareness regarding its environment as it goes directly into behaviours 2 and 3 (forepaw clonus or facial automatisms). The stun posture is most often upright, but the mouse may also fall on its side during a seizure; the fore limbs are often crossed and the hind limbs are spread wide apart. The “stunning” may occasionally be preceded by a few seconds of running with a rolling gait. 2) Forepaw clonus or automatism: usually resembles the mouse repeatedly raising its forepaw and then stomping it onto the ground. This is generally repeated several times, but must be repeated at least twice to be considered present. 3) Facial automatism: in the mouse best resembles jaw chomping or air biting; this also must occur at least twice to be considered present. 4) Elevated or Straub tail, which must be elevated to greater than a 45 degree angle to be considered present. The duration of the seizure varies from 5 to 75 s; at the end of the seizure, the animal rather suddenly resumes normal locomotion and exploratory behaviour. Each of the four above mentioned behaviours was scored as either absent (0) or present (1).

[3] = system: major depressive disorder with anxiety symptoms; settings: adjunctive administration; adults with major depressive disorder with anxiety symptoms; cited from earlier work
[4] = system: smoking cessation-induced deficits; settings: versus placebo; cited from earlier work
[5] = system: S-ketamine-induced negative symptoms; settings: healthy volunteers and patients with predominant negative symptoms of schizophrenia; cited from earlier work

T1 sequence (Q14416 19-872): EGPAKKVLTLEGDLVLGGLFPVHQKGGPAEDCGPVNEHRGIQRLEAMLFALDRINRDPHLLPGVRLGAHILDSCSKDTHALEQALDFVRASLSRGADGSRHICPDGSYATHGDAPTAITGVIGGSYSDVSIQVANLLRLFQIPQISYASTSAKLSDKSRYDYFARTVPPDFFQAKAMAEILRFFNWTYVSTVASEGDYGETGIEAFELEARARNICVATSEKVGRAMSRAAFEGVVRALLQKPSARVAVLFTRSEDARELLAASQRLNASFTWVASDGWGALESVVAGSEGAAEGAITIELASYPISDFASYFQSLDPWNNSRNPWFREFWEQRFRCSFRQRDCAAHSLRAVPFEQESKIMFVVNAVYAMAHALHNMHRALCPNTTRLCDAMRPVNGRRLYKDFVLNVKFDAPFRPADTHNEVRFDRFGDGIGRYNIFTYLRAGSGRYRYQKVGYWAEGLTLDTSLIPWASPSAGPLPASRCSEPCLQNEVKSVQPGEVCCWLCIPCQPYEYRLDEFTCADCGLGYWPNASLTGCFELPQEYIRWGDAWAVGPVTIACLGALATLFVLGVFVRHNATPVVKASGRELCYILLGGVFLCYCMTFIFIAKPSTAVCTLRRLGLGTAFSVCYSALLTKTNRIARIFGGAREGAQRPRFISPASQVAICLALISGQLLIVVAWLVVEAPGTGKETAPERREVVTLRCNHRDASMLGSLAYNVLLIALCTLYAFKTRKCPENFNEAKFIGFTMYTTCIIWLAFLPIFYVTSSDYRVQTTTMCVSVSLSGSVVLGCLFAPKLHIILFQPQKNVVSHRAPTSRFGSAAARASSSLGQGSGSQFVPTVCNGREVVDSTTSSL

Structure (SMILES): CCOc1nc(N2CCC(c3ccn4c(CC5CC5)nnc4c3C(F)(F)F)C2)ncc1Cl (single isomer, unassigned) [Co. No. 1a, 7-[(3*R)-1-(5-chloro-4-ethoxy-pyrimidin-2-yl)pyrrolidin-3-yl]-3-(cyclopropylmethyl)-8-(trifluoromethyl)-[1,2,4]triazolo[4,3-a]pyridine]
- GTPγS - hmGluR2 PAM Emax [1]: 148.44%
- EC50 [1]: 214 nM
- melting point: 167.64 °C

Structure (SMILES): CCOc1nc(N2CCC(c3ccn4c(CC5CC5)nnc4c3C(F)(F)F)C2)ncc1Cl (stereo not shown) [Co. No. 1, 7-[1-(5-chloro-4-ethoxy-pyrimidin-2-yl)pyrrolidin-3-yl]-3-(cyclopropylmethyl)-8-(trifluoromethyl)-[1,2,4]triazolo[4,3-a]pyridine]
- Emax [1]: 234%
- EC50 [1]: 5.89 nM

Structure (SMILES): CCCCn1ccc(N2CCC(c3ccccc3)CC2)c(Cl)c1=O [JNJ-40411813/ADX71149]
- efficacy on several secondary outcome measures of both depression and anxiety [3]: showed efficacy signals
- efficacy on the primary outcome measure [3]: no efficacy signal was detected
- effect on craving and smoking cessation-induced deficits in attention and episodic memory [4]: reduce craving and improve smoking cessation-induced deficits in attention and episodic memory
- efficacy in S-ketamine-induced negative symptoms [5]: showed an efficacy signal

The next lines start with results.

- GTPγS - hmGluR2 PAM Emax [1]: 277.87%
- EC50 [1]: 3.8 nM
- melting point: 168.29 °C
Structure (SMILES): CCOc1nc(N2CCC(c3ccn4c(CC5CC5)nnc4c3C(F)(F)F)C2)ncc1Cl (single isomer, unassigned) [Co. No. 1b, 7-[(3*S)-1-(5-chloro-4-ethoxy-pyrimidin-2-yl)pyrrolidin-3-yl]-3-(cyclopropylmethyl)-8-(trifluoromethyl)-[1,2,4]triazolo[4,3-a]pyridine]
- ED50 ([2]; route PO): 20 mg/kg
- ED50 ([2]; route SC): 3.79 mg/kg

- GTPγS - hmGluR2 PAM Emax ([1]; listed as 2a): 226.905%
- EC50 [1]: 2090 nM
Structure (SMILES): CCOCc1nnc2c(C(F)(F)F)c(C3CCN(c4ncc(Cl)c(OCC)n4)C3)ccn12 (single isomer, unassigned) [Co. No. 2a, 7-[(3*R)-1-(5-chloro-4-ethoxy-pyrimidin-2-yl)pyrrolidin-3-yl]-3-(ethoxymethyl)-8-(trifluoromethyl)-[1,2,4]triazolo[4,3-a]pyridine]

- GTPγS - hmGluR2 PAM Emax ([1]; listed as 2b): 295.62%
- EC50 [1]: 9.77 nM
Structure (SMILES): CCOCc1nnc2c(C(F)(F)F)c(C3CCN(c4ncc(Cl)c(OCC)n4)C3)ccn12 (single isomer, unassigned) [Co. No. 2b, 7-[(3*S)-1-(5-chloro-4-ethoxy-pyrimidin-2-yl)pyrrolidin-3-yl]-3-(ethoxymethyl)-8-(trifluoromethyl)-[1,2,4]triazolo[4,3-a]pyridine]
- ED50 ([2]; route PO): 20 mg/kg

- Emax [1]: 345%
- EC50 [1]: 17 nM
- melting point: 153.86 °C
Structure (SMILES): CCOCc1nnc2c(C(F)(F)F)c(C3CCN(c4ncc(Cl)c(OCC)n4)C3)ccn12 (stereo not shown) [Co. No. 2, 7-[1-(5-chloro-4-ethoxy-pyrimidin-2-yl)pyrrolidin-3-yl]-3-(ethoxymethyl)-8-(trifluoromethyl)-[1,2,4]triazolo[4,3-a]pyridine]
